Data taken from ChEMBL document CHEMBL1201862, “PubChem BioAssay data set” (2004).
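A five-concentration, 48-hour dose response in 96-well plates underlies each endpoint, interpolated linearly between surrounding concentrations. Here, GI50 denotes the concentration required for 50% inhibition of growth.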 Calls of active or inactive are those of the source. No stated cut-off is given here; in the data, active = GI50 up to about 1.1 µM and inactive = higher.

Experiments:
Assay in all cases: NCI tumour cell line growth inhibition, 48 h
[1] = system: SNB-75
[2] = system: SK-MEL-28
[3] = system: OVCAR-8
[4] = system: LOX IMVI
[5] = system: SF-539
[6] = system: SW-620
[7] = system: UO-31
[8] = system: PC-3
[9] = system: UACC-257
[10] = system: ACHN
[11] = system: DU-145
[12] = system: CCRF-CEM
[13] = system: M14
[14] = system: NCI/ADR-RES
[15] = system: SF-295
[16] = system: HOP-62
[17] = system: HCC 2998
[18] = system: KM12
[19] = system: HL-60
[20] = system: SR

Row | SMILES | GI50 [1] | GI50 [2] | GI50 [3] | GI50 [4] | GI50 [5] | GI50 [6] | GI50 [7] | GI50 [8] | GI50 [9] | GI50 [10] | GI50 [11] | GI50 [12] | GI50 [13] | GI50 [14] | GI50 [15] | GI50 [16] | GI50 [17] | GI50 [18] | GI50 [19] | GI50 [20]
1 | CC(NC(=O)NC(C)(C)C)NC(=O)C(N)CC(=O)O (stereo not given) | > 100 µM (inactive) | > 100 µM (inactive) | > 100 µM (inactive) | > 100 µM (inactive) | > 100 µM (inactive) | > 100 µM (inactive) | > 100 µM (inactive) | > 100 µM (inactive) | > 100 µM (inactive) | > 100 µM (inactive) | > 100 µM (inactive) | > 100 µM (inactive) | > 100 µM (inactive) | > 100 µM (inactive) | > 100 µM (inactive) | > 100 µM (inactive) | > 10 µM (inactive) | > 100 µM (inactive) | – | –
2 | c1ccc(COc2ccc(CC3SCCCS3)cc2)cc1 | – | > 100 µM (inactive) | > 100 µM (inactive) | > 100 µM (inactive) | – | > 100 µM (inactive) | – | > 100 µM (inactive) | 21.8 µM (inactive) | > 100 µM (inactive) | > 100 µM (inactive) | 43.6 µM (inactive) | > 100 µM (inactive) | – | > 100 µM (inactive) | > 100 µM (inactive) | > 100 µM (inactive) | – | 23.2 µM (inactive) | 34.4 µM (inactive)
3 | CC1(C)CCC2=C(O1)c1ccccc1/C(=N/c1ccc([N+](=O)[O-])cc1)C2=O | 18.3 µM (inactive) | 16.3 µM (inactive) | 14 µM (inactive) | – | – | 16.1 µM (inactive) | 10.6 µM (inactive) | 14 µM (inactive) | 16.5 µM (inactive) | 12.9 µM (inactive) | – | – | 8.24 µM (inactive) | 21.2 µM (inactive) | – | 17.1 µM (inactive) | 17.7 µM (inactive) | 14.5 µM (inactive) | 0.728 µM (active) | 14.2 µM (inactive)
4 | CCC1C2Cc3ccc(O)cc3C1(CC)CCN2C (stereo not given) | > 100 µM (inactive) | > 100 µM (inactive) | > 100 µM (inactive) | > 100 µM (inactive) | > 100 µM (inactive) | > 100 µM (inactive) | > 100 µM (inactive) | > 100 µM (inactive) | 77.3 µM (inactive) | > 100 µM (inactive) | > 100 µM (inactive) | > 100 µM (inactive) | > 100 µM (inactive) | > 100 µM (inactive) | > 100 µM (inactive) | > 100 µM (inactive) | – | > 100 µM (inactive) | > 100 µM (inactive) | > 100 µM (inactive)
5 | Cc1ccc(C(=O)CC(Cl)=C(Cl)Cl)cc1 | > 100 µM (inactive) | > 100 µM (inactive) | > 100 µM (inactive) | 31.7 µM (inactive) | > 100 µM (inactive) | > 100 µM (inactive) | > 100 µM (inactive) | > 100 µM (inactive) | 65.9 µM (inactive) | > 100 µM (inactive) | > 100 µM (inactive) | 25.8 µM (inactive) | > 100 µM (inactive) | > 100 µM (inactive) | 25.6 µM (inactive) | > 100 µM (inactive) | – | > 100 µM (inactive) | 54 µM (inactive) | 25.7 µM (inactive)
6 | O=C1CCCn2c3ccccc3c3ccnc1c32 | 34.3 µM (inactive) | 51.6 µM (inactive) | 34.6 µM (inactive) | 36.1 µM (inactive) | 30.8 µM (inactive) | 41.1 µM (inactive) | 35 µM (inactive) | – | 29.9 µM (inactive) | – | – | 27.8 µM (inactive) | – | 36.6 µM (inactive) | 38.9 µM (inactive) | 43.1 µM (inactive) | 41.4 µM (inactive) | 62.1 µM (inactive) | 6.89 µM (inactive) | –
7 | O=C(Nc1nc(C23CC4CC(CC(C4)C2)C3)cs1)c1cc2ccc(O)cc2oc1=O | – | 15.1 µM (inactive) | 6.67 µM (inactive) | 8.07 µM (inactive) | 17.1 µM (inactive) | 10.3 µM (inactive) | 7.36 µM (inactive) | 13.5 µM (inactive) | 15.6 µM (inactive) | 10.6 µM (inactive) | 18.3 µM (inactive) | 14.7 µM (inactive) | – | 11.1 µM (inactive) | 16.5 µM (inactive) | 15.2 µM (inactive) | 10.6 µM (inactive) | 6.05 µM (inactive) | 10.3 µM (inactive) | –
8 | C[n+]1c2ccccc2c(C(=O)Nc2ccc(S(=O)(=O)N=C(N)N)cc2)c2ccccc21 | > 100 µM (inactive) | > 100 µM (inactive) | > 100 µM (inactive) | 75.3 µM (inactive) | > 100 µM (inactive) | > 100 µM (inactive) | > 100 µM (inactive) | > 100 µM (inactive) | > 100 µM (inactive) | > 100 µM (inactive) | > 100 µM (inactive) | – | > 100 µM (inactive) | > 100 µM (inactive) | > 100 µM (inactive) | > 100 µM (inactive) | > 100 µM (inactive) | > 100 µM (inactive) | – | –
9 | CCOC(=O)CC1CCN(C(=O)c2ccccc2)C2Cc3c([nH]c4ccccc34)C12C[N+](=O)[O-] (stereo not given) | 56.6 µM (inactive) | > 100 µM (inactive) | 79.3 µM (inactive) | > 100 µM (inactive) | > 100 µM (inactive) | > 100 µM (inactive) | 48.3 µM (inactive) | 43.5 µM (inactive) | > 100 µM (inactive) | 67 µM (inactive) | > 100 µM (inactive) | 12.6 µM (inactive) | 63.2 µM (inactive) | 49.4 µM (inactive) | 40.5 µM (inactive) | 46.1 µM (inactive) | – | 71 µM (inactive) | 38.7 µM (inactive) | 39.8 µM (inactive)
10 | Cc1cc(-c2ccc(C(=O)O)[nH]2)on1 | 44.3 µM (inactive) | > 100 µM (inactive) | 61.4 µM (inactive) | – | – | 30.1 µM (inactive) | 55.6 µM (inactive) | 68.5 µM (inactive) | > 100 µM (inactive) | > 100 µM (inactive) | 62.4 µM (inactive) | – | 52 µM (inactive) | 24.9 µM (inactive) | 47.3 µM (inactive) | 65.2 µM (inactive) | 55 µM (inactive) | > 100 µM (inactive) | – | –
11 | O=C1CSSCC(=O)Nc2ccccc2N1 | – | > 100 µM (inactive) | > 100 µM (inactive) | > 100 µM (inactive) | > 100 µM (inactive) | > 100 µM (inactive) | > 100 µM (inactive) | > 100 µM (inactive) | > 100 µM (inactive) | > 100 µM (inactive) | > 100 µM (inactive) | > 100 µM (inactive) | > 100 µM (inactive) | > 100 µM (inactive) | > 100 µM (inactive) | > 100 µM (inactive) | – | > 100 µM (inactive) | > 100 µM (inactive) | > 100 µM (inactive)
12 | Nc1cc2c(cc1[N+](=O)[O-])[nH]c1c(-c3ccccc3)nccc12 | 19.2 µM (inactive) | 27.1 µM (inactive) | 30.8 µM (inactive) | 13.6 µM (inactive) | 24.4 µM (inactive) | 25.9 µM (inactive) | 5.77 µM (inactive) | – | 18 µM (inactive) | – | – | 7.71 µM (inactive) | – | 14.1 µM (inactive) | 21.7 µM (inactive) | 15.2 µM (inactive) | 13.2 µM (inactive) | 15.8 µM (inactive) | 11.8 µM (inactive) | –
13 | COc1ccc2[nH]c3c(C)c4cc[n+](C)cc4c(C)c3c2c1 | 0.228 µM (active) | 2.18 µM (inactive) | 0.305 µM (active) | 10.2 µM (inactive) | 0.345 µM (active) | 1.11 µM (active) | 21.7 µM (inactive) | 3.54 µM (inactive) | 12.1 µM (inactive) | 14 µM (inactive) | – | 1.72 µM (inactive) | – | 22 µM (inactive) | 0.332 µM (active) | 0.621 µM (active) | 3.15 µM (inactive) | 1.62 µM (inactive) | 22 µM (inactive) | –
14 | CC1=NOC(C)(O)/C1=N/O (stereo not given) | > 100 µM (inactive) | > 100 µM (inactive) | > 100 µM (inactive) | > 100 µM (inactive) | > 100 µM (inactive) | > 100 µM (inactive) | > 100 µM (inactive) | > 100 µM (inactive) | > 100 µM (inactive) | > 100 µM (inactive) | > 100 µM (inactive) | > 100 µM (inactive) | > 100 µM (inactive) | > 100 µM (inactive) | > 100 µM (inactive) | > 100 µM (inactive) | > 100 µM (inactive) | > 100 µM (inactive) | > 100 µM (inactive) | –
15 | CCOC(=O)CCC(C(=O)OCC)n1nnc2ccc(Nc3c(C)[n+]([O-])c4cc(F)c(OCC)cc4[n+]3[O-])cc21 (stereo not given) | 79.4 µM (inactive) | – | 94.4 µM (inactive) | 32.7 µM (inactive) | 24.8 µM (inactive) | > 100 µM (inactive) | 54 µM (inactive) | > 100 µM (inactive) | 21.2 µM (inactive) | 51.8 µM (inactive) | 58.9 µM (inactive) | 40 µM (inactive) | 62.4 µM (inactive) | 87.7 µM (inactive) | 77.4 µM (inactive) | > 100 µM (inactive) | – | 80.4 µM (inactive) | 36.8 µM (inactive) | 36.5 µM (inactive)
16 | C=C(C)C(=O)O[C@@H]1C/C(C)=C\[C@H](OC(C)=O)C[C@](C)(O)/C=C2/OC(=O)C(COC(C)=O)=C21 | 3.93 µM (inactive) | 0.251 µM (active) | 0.69 µM (active) | 0.152 µM (active) | 1.28 µM (inactive) | 0.216 µM (active) | 1.63 µM (inactive) | 1.61 µM (inactive) | 1.69 µM (inactive) | 0.556 µM (active) | 2.37 µM (inactive) | 0.0649 µM (active) | 0.673 µM (active) | – | 6.76 µM (inactive) | 5.66 µM (inactive) | 0.399 µM (active) | 6.32 µM (inactive) | 0.013 µM (active) | 0.0423 µM (active)
